# Patent US20220313626A1, “SMALL MOLECULE INHIBITORS FOR TREATING CANCER IN A SUBJECT HAVING TUMORS WITH HIGH INTERSTITIAL PRESSURE” (GUANGZHOU MAXINOVEL PHARMACEUTICALS CO., LTD., priority 2019, published 2022)
# Test system: B16F10 tumor cells
# Assay: Anti-tumor efficacy in the B16F10 models
# Assay type: in vivo
# Conditions: for TGI / Tumor Volume: BID, 20 days
# Procedure: Materials required for the experiment: Antibody: mouse PD-1 antibody, Product specifications: 7.09 mg/mL (50 mg/mL), Lot No.: 695318A1 purchased from BioXcell, storage at 4 °C. Experimental animals: 60 C57BL/6 mice, female, 6˜8 weeks old, 17˜21 g, purchased from Shanghai Lingchang Biotechnology Co. Ltd. Formulation materials: castor oil (Cremophor RH40) , CAS No.: 61788-85-0, Lot No.: 29761847G0, purchased from Shanghai Xietai Chemical Co. Ltd.; β-cyclodextrin (SBE-β-CD), CAS No.: 128446-35-5, Lot No.: 20180110, purchased from Shanghai Shaoyuan Chemical Co. Ltd.; DMEM culture medium, Art. No.: 11995-065, Lot No.:2025378, purchased from Gibco Co. Ltd.; PBS, Art. No.: SH30256.01, Lot No.: AB10141338, purchased from HyClone Co. Ltd.; Fetal bovine serum: Art. No.: 04-002-1A, Lot No.: 1625436, purchased from Boehringer Ingelheim Co. Ltd.; Methyl cellulose (MC), Art. No.: M7027-250G, Lot No.: 079K0054V, purchased from Sigma.
# Cell preparation and implantation: The B16-F10 tumor cells (ATCC CRL6475™) were maintained in vitro as a monolayer culture in DMEM medium supplemented with 10% heat inactivated fetal bovine serum at 37° C. in an atmosphere of 5% CO2 in air. The tumor cells were routinely subcultured three times weekly by trypsin-EDTA treatment. The cells growing to a confluency around 70%-80% were harvested and counted for tumor inoculation.
# Tumor cell inoculation and group administration: The 100 uL cell suspension containing 1×10^6 B16F10 tumor cells (cells suspended in base DMEM medium) was inoculated into the right subcutaneous of mice. On the second day after inoculation, according to the order of tumor inoculation, stratified randomization was used to group and start the administration on the day of grouping.
# Preparation of test substances: Preparation of formulation: 700 mL of sterile water was added into the volumetric flask with magnetic stirring to have a vortex. 100 g of castor oil (Cremophor RH40) was added with a spoon slowly into the vortex and the solution was kept stirring. 200 g of β-cyclodextrin (SBE-β-CD) was added while the solution was kept stirring until the solution was clear, and the total volume was set to 1000 mL, which contained 10% (w/v) Cremophor RH40+20% (w/v) an aqueous solution of SBE-β-CD.
# Preparation of compound suspension: 169.16 mg compound was weighed, 14.012 mL 10% (w/v) Cremophor RH40+20% (w/v) SBE-β-CD aqueous solution were added, and the suspension solution with a concentration of 12.0 mg/mL was obtained by fully mixing with magnetic stirring. 6.0 mL of the compound suspension solution with concentration of 12.0 mg/mL was pipetted and 6.0 mL aqueous formulation solution was added. The suspension solution with a concentration of 6.0 mg/mL was obtained by fully mixing with magnetic stirring. 6.0 mL of the compound suspension solution with concentration of 6.0 mg/mL was pipetted and 6.0 mL aqueous formulation solution was added. The suspension solution with a concentration of 3.0 mg/mL was obtained by fully mixing with magnetic stirring. The compound suspension solution was prepared once a day.
# Preparation of mPD-1 antibody: 0.564 mL mPD-L1 antibody (7.09 mg/mL) original solution was pipetted and […] PBS solution was added. The solution was fully mixed and the final concentration of 1 mg/mL solution was obtained.
# Procedure: The mice in the vehicle group were weighed and recorded in the electronic balance according to their numbers. The mice in the vehicle group were given prepared formulation solution twice a day by oral administration according to their body weight with a capacity of 0.1 mL/10 g. Each mouse spent about 20 seconds and 10 mice in each group shared for about 5 minutes.
# The mice in the antibody (10 mg/kg) group were weighed and recorded in the electronic balance according to their numbers. The mice in the antibody group were given prepared antibody solution twice a week by IP administration according to their body weight with a capacity of 0.1 ml/10 g. […]
# [1] = B16F10, C57BL/6 mice, 30 mg/kg, PO
# [2] = B16F10, C57BL/6 mice, 60 mg/kg, PO
# [3] = B16F10, C57BL/6 mice, 120 mg/kg, PO
structure (smiles),measurement,setting,value
Cc1c(/C=C/c2cc(CN[C@@](C)(CO)C(=O)O)ccc2C(F)(F)F)cccc1-c1ccccc1 [Compound],growth of subcutaneous transplanted melanoma cell line in mice,"B16F10, C57BL/6 mice",significantly inhibit the growth
same,TGI,[1],35.59%
same,Tumor Volume,[1],795.99 ± 112.92 mm^3
same,TGI,[2],38.87%
same,Tumor Volume,[2],755.48 ± 155.85 mm^3
same,TGI,[3],47.35%
same,Tumor Volume,[3],650.67 ± 157.53 mm^3
same,tolerability (adverse reactions),"C57BL/6 mice, PO, BID up to 120 mg/kg",well tolerated
